Laboratory results published in patent US20060276393A1, “Novel compositions for preventing and treating neurodegenerative and blood coagulation disorders” (Sirtris Pharmaceuticals, Inc., priority 2005, published 2006).

Assays:
[1] = biological target: p53-382 acetylated peptide (human) (UniProt P04637)
[2] = system: S. cerevisiae; experiment: Yeast replicative lifespan; format: cell-based; conditions: 10 μM; 2% (w/v) glucose YPD; untreated 100%
Method: Average lifespan for wild type, 22.9 generations, quercetin, 23.4; piceatannol. […]
All yeast strains were grown at 30° C. in complete yeast extract/bactopeptone, 2.0% (w/v) glucose (YPD) medium except where stated otherwise. Calorie restriction was induced in 0.5% glucose. Synthetic complete (SC) medium consisted of 1.67% yeast nitrogen base, 2% glucose, 40 mg/litre each of auxotrophic markers. SIR2 was integrated in extra copy and disrupted as described^5. Other strains are described elsewhere^26. For cellular deacetylation assays, HeLa S3 cells were used. U20S osteosarcoma and human embryonic kidney (HEK 293) cells were cultured adherently in Dulbecco's Modified Eagle's Medium (DMEM) containing 10% fetal calf serum (FCS) with 1.0% glutamine and 1.0% penecillin/streptomycin. HEK 293 overexpressing dominant negative SIRT1 H363Y was a gift of R. Frye (U. Pittsburgh).
Lifespan measurements were performed using PSY316AT MATα as previously described^35. All compounds for lifespan analyses were dissolved in 95% ethanol and plates were dried and used within 24 hours. Prior to lifespan analysis, cells were pre-incubated on their respective media for at least 15 hours. Following transfer to a new plate, cells were equilibrated on the medium for a minimum of 4 hours prior to micro-manipulating them. At least 30 cells were examined per experiment and each experiment was performed at least twice. Statistical significance of lifespan differences was determined using the Wilcoxon rank sum test. Differences are stated to be significant when the confidence is higher than 95%.

[3] = biological target: T1, recombinant human SIRT1 (Homo sapiens, UniProt Q96EB6); experiment: SIRT1 fluorescent deacetylation assay (p53-382 acetylated peptide); format: biochemical; conditions: 25 μM NAD+, 25 μM p53-382 acetylated peptide, compounds at 100 μM
T1 sequence (Q96EB6 1-747): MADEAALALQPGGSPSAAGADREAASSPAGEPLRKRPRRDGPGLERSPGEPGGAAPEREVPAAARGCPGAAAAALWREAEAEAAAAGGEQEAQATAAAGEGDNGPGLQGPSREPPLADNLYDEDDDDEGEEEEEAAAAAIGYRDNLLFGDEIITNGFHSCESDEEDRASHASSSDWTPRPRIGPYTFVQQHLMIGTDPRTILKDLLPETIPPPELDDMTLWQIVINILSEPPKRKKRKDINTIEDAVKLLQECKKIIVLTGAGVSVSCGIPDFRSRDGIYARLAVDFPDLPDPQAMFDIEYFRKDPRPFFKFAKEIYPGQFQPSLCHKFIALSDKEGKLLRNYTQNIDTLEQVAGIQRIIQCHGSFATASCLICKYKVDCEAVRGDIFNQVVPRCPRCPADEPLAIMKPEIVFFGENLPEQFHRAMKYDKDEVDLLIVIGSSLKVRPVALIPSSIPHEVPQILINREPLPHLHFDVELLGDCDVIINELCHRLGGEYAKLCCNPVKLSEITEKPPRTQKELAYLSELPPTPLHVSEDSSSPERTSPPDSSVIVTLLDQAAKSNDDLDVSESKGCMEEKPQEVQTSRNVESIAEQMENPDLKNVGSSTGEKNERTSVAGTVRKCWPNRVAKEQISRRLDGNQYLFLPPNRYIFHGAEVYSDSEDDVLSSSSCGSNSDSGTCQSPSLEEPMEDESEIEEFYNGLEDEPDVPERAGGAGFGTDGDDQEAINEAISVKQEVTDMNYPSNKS
Excerpt: Lines represent non-linear least-squares fits to the Michaelis-Menten equation. […] Lines represent non-linear least-squares fits to the Michaelis-Menten equation. […] Error bars are standard errors of the mean.
To identify compounds that modulate SIRT1 activity, a number of small molecule libraries were screened using a fluorescent deacetylation assay in 96-well plates^26. The substrate used in the assay was a fluorogenic peptide based on the sequence encompassing the p53-K382 acetylation site, a known target of SIRT1 in vivo^20,21,27. […] The small molecule libraries included analogues of nicotinamide, ε-acetyl lysine, NAD^+, nucleotides, nucleotide analogues and purinergic ligands.
His6-tagged recombinant SIRT1 and GST-tagged recombinant Sir2 were prepared as previously described^26. From 0.1 to 1 μg of SIRT1 and 1.5 μg of Sir2 were used per deacetylation assay (in 50 μl total reaction) as previously described^26.
Themed compound libraries (BIOMOL) were used for primary and secondary screening. Most polyphenol compounds were dissolved at 10 mM in dimethylsulfoxide (DMSO) on the day of the assay. For water soluble compounds and negative controls, 1% v/v DMSO was added to the assay. […] Unless otherwise indicated all initial rate measurements were means of three or more replicates, obtained with single incubation times, at which point 5% or less of the substrate initially present had been deacetylated. Calculation of net fluorescence increases included subtraction of a blank value, which in the case of Sir2 was obtained by omitting the enzyme from the reaction and in the case of SIRT1 by adding an inhibitor (200 μM suramin or 1 mM nicotinamide) to the reaction prior to the acetylated substrate. […] All error bars represent the standard error of the mean.

[4] = biological target: T2, SIRT1 deacetylase (BIOMOL) (Homo sapiens, UniProt Q96EB6); experiment: High-throughput SIRT1 screening protocol (ICCB library); format: biochemical; conditions: positive controls; 200 μM NAD+, 5 μM Fluor de Lys-SIRT1; resveratrol 50 μM
T2 construct: purchased BIOMOL
T2 sequence (Q96EB6 1-747): T1 sequence (Q96EB6 1-747)
Method: The reaction mixture contains (final): 0.5 units/reaction SIRT1 deacetylase (BIOMOL); 200 μM NAD^+; 5 μM Fluor de Lys-SIRT1 substrate (BIOMOL); buffer (25 mM Tris/Cl, pH 8.0, 137 mM NaCl, 2.7 mM KCl, 1 mM MgCl2, and 1 mg/ml BSA). In addition, a reaction mixture containing no enzyme was made so that each well receiving compound has a corresponding “no enzyme control” well. Reactions were performed in black 384 well plates (NUNC) in a final volume of 25 μl/well.
The reactions were started by combining enzyme and substrate in a reaction mixture immediately prior to aliquoting in plates (or substrate only for “no enzyme control” plates). Mixture were aliquoted to plates using Biotek μfill (Biotek Instruments). Control mixtures were manually added to designated wells. A library compound was added at a desired concentration by pin transfer to both “with enzyme” and “no enzyme” plates. Compounds were added in at least triplicate (with enzyme reaction in duplicate and no enzyme controls) at a final concentration of roughly 50 μM. The plates were incubated at 37° C for 30-60 minutes. Then 25 μl of 1× Developer II (BIOMOL) plus 2 mM nicotinamide were added to all wells to stop the reactions. The reactions were left for at least 30 minutes at 37° C. for the signal to develop. The plates were read in a microplate-reading fluorometer capable of excitation at a wavelength in the range of 350-380 nm and detection of emitted light in the range of 440-460 nm. A read time of 0.1 sec per well was used.

[5] = system: thoracic spinal cord of EAE SJL/J mice; experiment: EAE spinal cord white matter damage; format: in vivo, mouse; conditions: FK506 5 mg/kg, significant
Excerpt: At day 40 post-immunization, mice from each group are sacrificed with an overdose of ketamine/xylazine. Spinal cords are dissected, fixed in 10% buffered formalin, and embedded in paraffin. Five micron thick sections are stained with Hematoxylin and Eosin (H&E) and Luxol Fast Blue (LFB) to assess myelin loss. Bielshowesky's silver impregnation is used to evaluate axonal integrity. To asses the amount of axonal loss, paraffin sections are exposed to monoclonal antibodies against mouse non-phosphorylated neurofilament H (Clone SMI-32, Stemberger Monoclonals, Baltimore, USA) and monoclonal antibodies against APP (Clone 22C11, Chemicon). SMI-32 is detected with a Cy3-labeled antibody and visualized by fluorescence microscopy. Anti-APP antibodies are detected by incubation with ColonoPAP, and APP-positive axons are visualized with 3,3′-diaminobenzidine (DAB).
The percentage of the spinal cord showing damage was determined in the cervical, thoracic and lumbar cord. At each level, regions in the 1) dorsal columns and 2) the lateral and ventral white matter tracts containing damaged fibers was circumscribed on photomontages (final magnification ×100) of the entire spinal cord. Damaged areas in each of the two regions were measured using a SummaSketch III (Summagraphics, Seymour, Conn.) digitizing tablet and BIOQUANT Classic 95 software (R&M Biometrics, Nashville, Tenn.). Measurements were also be made of the total area (damaged and nondamaged) of the 1) dorsal columns and 2) the lateral and ventral columns. For each section (one section per animal), the cumulative percent lesion areas were calculated for each region (dorsal column, lateral and ventral columns).

[6] = system: Experimental autoimmune encephalomyelitis (EAE) in SJL/J mice; conditions: FK506 5 mg/kg/day
[7] = system: C. elegans; experiment: C. elegans lifespan; format: in vivo; conditions: N2 worms, E. coli as food
Method: Thus, the presence of resveratrol in the growth media of C. elegans extends their lifespan.
Bristol N2 (Caenorhabditis Genetics Center) was used as the wild-type strain. The sir-2.1 mutant strain was generated by backcrossing VC199 (sir-2.1(ok434)) to N2 four times. Cultures were grown on standard NGM media and maintained on E. coli strain OP50. For the lifespan assays, synchronized animals were transferred to treatment plates as young adults (2 d after hatching, day 0 of assay), and were transferred to fresh treatment plates every 2 days for the first 6 to 8 days of the assay. […] For some lifespan trials, heat-killed OP50 were used as a food source. OP50 cultures were heated to 65° C. for 30 minutes, then pelleted and resuspended in 1/10 volume in S Basal supplemented with 10 mM MgSO4. In all assays, worms were monitored daily for mortality by gently probing with a platinum pick. Assays were performed at 24° C. To assay worm feeding rates, worms at the indicated stages were placed on treatment plates (no FUdR) for 4-5 hours, then videoed for 1 minute using a Pixelink PL-662 camera. The frame rate was slowed and the pumping rate of the pharynx was counted. To assay fecundity, gravid hermaphrodites (5 per plate, raised from synchronized L1s on normal or treatment plates) were allowed to lay eggs on their respective media for 5 hours, and the total number of eggs was counted.

Molecule His6-tagged recombinant SIRT1 (enzyme) has a Km for the acetylated peptide (initial deacetylation rate, fluorescence) [1] of 64 µM.

`Oc1cc(O)cc(/C=C/c2ccccc2)c1` [Pinosylvin, 3,5-Dihydroxy-trans-stilbene] was tested, and the “% change in yeast replicative lifespan relative to untreated organisms (10 μM)” value [2] was 114%, the “SIRT1 stimulating activity (in words)” value [3] was “did the least to decrease activity” and the “SIRT1 stimulating activity (in words)” value ([3]; listed as pinosylvin) was “did not significantly diminish the SIRT1 activating effect”. The “activated SIRT1” value [4] was 3.28 fold.

For `C=CC[C@@H]1/C=C(\C)C[C@H](C)C[C@H](OC)[C@H]2O[C@@](O)(C(=O)C(=O)N3CCCC[C@H]3C(=O)O[C@H](/C(C)=C/[C@@H]3CC[C@@H](O)[C@H](OC)C3)[C@H](C)[C@@H](O)CC1=O)[C@H](C)C[C@@H]2OC` [FK506], the “reduction of extent of damage in dorsal, lateral and ventral white matter” value [5] was “over 90%”, the “Mean EAE Score - Last 10 Days” value ([6]; vehicle 23.00) was 7.75 and the “Mean total EAE score” value ([6]; vehicle 72.38) was 25.38.

`COc1ccc(/C=C/c2cc(O)cc(O)c2)cc1` [BML-233, 3,5-Dihydroxy-4′-methoxy-trans-stilbene] was tested, and the “% change in C. elegans lifespan relative to untreated organisms” value ([7]; (10)) was 70%, the “% change in C. elegans lifespan relative to untreated organisms” value ([7]; (500)) was 50% and the “SIRT1 stimulating activity (in words)” value [3] was “strong activator of sirtuins”. The “activated SIRT1” value [4] was 2.1 fold.
